# Test results as given in ChEMBL document CHEMBL1201862, “PubChem BioAssay data set” (2004).
#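 Each compound was tested at five concentrations against cells in 96-well plates for 48 hours. GI50 marks 50% less growth.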 Calls of active or inactive are those of the source. Cut-off read from the data, not from the text of the source: active = GI50 up to about 1.1 µM and inactive = higher.
# What was measured:
# Assay in all cases: growth of human tumour cells (NCI), 48 h
# [1] = tested on: SF-268
# [2] = tested on: Hs-578T
# [3] = tested on: U-251
# [4] = tested on: UACC-62
# [5] = tested on: SN12C
# [6] = tested on: A549
# [7] = tested on: SK-MEL-5
# [8] = tested on: SNB-19
# [9] = tested on: HT-29
# [10] = tested on: OVCAR-4
# [11] = tested on: NCI/ADR-RES
# [12] = tested on: HCT-15
# [13] = tested on: SK-OV-3
# [14] = tested on: NCI-H23
# [15] = tested on: COLO 205
# [16] = tested on: MDA-MB-231
# [17] = tested on: CCRF-CEM
# [18] = tested on: 786-0
# [19] = tested on: RPMI-8226
# [20] = tested on: HOP-92
Compound,GI50 [1],GI50 [2],GI50 [3],GI50 [4],GI50 [5],GI50 [6],GI50 [7],GI50 [8],GI50 [9],GI50 [10],GI50 [11],GI50 [12] [µM],GI50 [13],GI50 [14],GI50 [15],GI50 [16],GI50 [17],GI50 [18],GI50 [19],GI50 [20]
NC1=NC(c2ccc(Cl)cc2)N(c2ccc(S(N)(=O)=O)cc2)C(N)=N1 (stereo not given),> 100 µM (inactive),> 100 µM (inactive),> 100 µM (inactive),> 100 µM (inactive),> 100 µM (inactive),> 100 µM (inactive),> 100 µM (inactive),> 100 µM (inactive),> 100 µM (inactive),> 100 µM (inactive),> 100 µM (inactive),> 100,> 100 µM (inactive),> 100 µM (inactive),> 100 µM (inactive),> 100 µM (inactive),> 100 µM (inactive),> 100 µM (inactive),> 100 µM (inactive),> 100 µM (inactive)
C(CCc1nnc2c(n1)CCCC2)Cc1nnc2c(n1)CCCC2,> 100 µM (inactive),> 100 µM (inactive),> 100 µM (inactive),> 100 µM (inactive),> 100 µM (inactive),> 100 µM (inactive),> 100 µM (inactive),> 100 µM (inactive),> 100 µM (inactive),> 100 µM (inactive),> 100 µM (inactive),> 100,> 100 µM (inactive),> 100 µM (inactive),> 100 µM (inactive),> 100 µM (inactive),> 100 µM (inactive),> 100 µM (inactive),> 100 µM (inactive),> 100 µM (inactive)
Cc1nnc2n1N=C(c1cc(F)c(Cl)cc1Cl)/C(=C/c1ccc(Cl)cc1)S2,41.8 µM (inactive),43.1 µM (inactive),17 µM (inactive),15 µM (inactive),14.9 µM (inactive),18 µM (inactive),19.2 µM (inactive),23.7 µM (inactive),11.7 µM (inactive),13.7 µM (inactive),11.8 µM (inactive),13.8,43.4 µM (inactive),14.5 µM (inactive),33.4 µM (inactive),15.8 µM (inactive),19.1 µM (inactive),16.8 µM (inactive),15.5 µM (inactive),19.6 µM (inactive)
CC(O)(c1ccccc1)c1nccc2ccccc12 (stereo not given),95.7 µM (inactive),45.8 µM (inactive),45.5 µM (inactive),50.6 µM (inactive),> 100 µM (inactive),87.3 µM (inactive),44.2 µM (inactive),> 100 µM (inactive),74.3 µM (inactive),37.7 µM (inactive),43.7 µM (inactive),53,96.6 µM (inactive),> 100 µM (inactive),70.6 µM (inactive),20.1 µM (inactive),58.6 µM (inactive),> 100 µM (inactive),37.3 µM (inactive),22.4 µM (inactive)
CC(C)(Cl)C(Cl)CC/C(CBr)=C(\Cl)CBr (stereo not given),3.3 µM (inactive),1.85 µM (inactive),1.83 µM (inactive),1.76 µM (inactive),2.45 µM (inactive),10.6 µM (inactive),1.79 µM (inactive),11.1 µM (inactive),2.84 µM (inactive),1.51 µM (inactive),2.77 µM (inactive),1.75,4.31 µM (inactive),1.85 µM (inactive),2.62 µM (inactive),2 µM (inactive),0.15 µM (active),1.36 µM (inactive),0.706 µM (active),1.75 µM (inactive)
C=C(CCOC)CCC1CCCCC(=C)[C@H]1OC(C)=O (stereo not given in full),> 100 µM (inactive),> 100 µM (inactive),> 100 µM (inactive),> 100 µM (inactive),> 100 µM (inactive),> 100 µM (inactive),63.2 µM (inactive),> 100 µM (inactive),> 100 µM (inactive),> 100 µM (inactive),78.3 µM (inactive),> 100,> 100 µM (inactive),93.8 µM (inactive),> 100 µM (inactive),> 100 µM (inactive),> 100 µM (inactive),> 100 µM (inactive),51.1 µM (inactive),> 100 µM (inactive)
CSc1nc(Cl)c2c(n1)Sc1nc3ccccc3n1C2O (stereo not given),5.25 µM (inactive),5.36 µM (inactive),3.67 µM (inactive),3.42 µM (inactive),4.85 µM (inactive),7.38 µM (inactive),2.5 µM (inactive),14.4 µM (inactive),3.52 µM (inactive),17.2 µM (inactive),3.27 µM (inactive),3.4,47.9 µM (inactive),5.65 µM (inactive),2.64 µM (inactive),4.88 µM (inactive),1.36 µM (inactive),2.15 µM (inactive),2.85 µM (inactive),5.31 µM (inactive)
O=C(C=P(c1ccccc1)(c1ccccc1)c1ccccc1)c1cccc(-c2cccc([N+](=O)[O-])c2)c1,3.93 µM (inactive),3.44 µM (inactive),3.89 µM (inactive),1.72 µM (inactive),2.97 µM (inactive),3.62 µM (inactive),2.37 µM (inactive),4.21 µM (inactive),1.8 µM (inactive),2.45 µM (inactive),3.42 µM (inactive),3.16,2.86 µM (inactive),3.44 µM (inactive),1.53 µM (inactive),2 µM (inactive),2.55 µM (inactive),4.24 µM (inactive),1.98 µM (inactive),1.32 µM (inactive)
C(=C\c1nccs1)/c1cccc(/C=C/c2nccs2)n1,> 50 µM (inactive),> 50 µM (inactive),34.8 µM (inactive),> 50 µM (inactive),> 50 µM (inactive),> 50 µM (inactive),> 50 µM (inactive),> 50 µM (inactive),> 50 µM (inactive),> 50 µM (inactive),> 50 µM (inactive),> 50,> 50 µM (inactive),> 50 µM (inactive),> 50 µM (inactive),> 50 µM (inactive),> 50 µM (inactive),> 50 µM (inactive),> 50 µM (inactive),> 50 µM (inactive)
CCOC(=O)c1cc(Sc2ccc(N)c(C(=O)OCC)c2)ccc1N,16.1 µM (inactive),21.5 µM (inactive),27.9 µM (inactive),9.42 µM (inactive),18 µM (inactive),19.6 µM (inactive),> 100 µM (inactive),> 100 µM (inactive),28.8 µM (inactive),17.8 µM (inactive),5.25 µM (inactive),> 100,> 100 µM (inactive),25.3 µM (inactive),60.8 µM (inactive),14.4 µM (inactive),28 µM (inactive),26.4 µM (inactive),24 µM (inactive),58.2 µM (inactive)
